# Laboratory results as given in publication PMC6891447, “Andean Prumnopitys Andina (Podocarpacae) Fruit Extracts: Characterization of Secondary Metabolites and Potential Cytoprotective Effect” (Molecules, 2019).
# Read-outs that look alike come from different tables or passages of the source.
# How the values were obtained:
# [1] = Oxygen radical absorbance capacity (ORAC) assay; type: physicochemical
# Procedure: (§1) The antioxidant capacity of the extracts was evaluated by the discoloration of the DPPH radical, the ferric reducing power (FRAP), the scavenging of the ABTS radical (TEAC) and the oxygen radical absorbance capacity (ORAC). […] Trolox and quercetin were used as reference compounds. The DPPH, FRAP and TEAC assays were performed according to Jiménez-Aspee et al.. The ORAC assay was carried out following the methodology of Ou et al. with slight modifications. All determinations were carried out in triplicate and results are presented as mean values ± standard deviation (SD).
# [2] = Ferric reducing power (FRAP) assay; type: physicochemical
# Procedure: as §1
# [3] = DPPH radical discoloration (scavenging) assay; type: physicochemical
# Procedure: as §1
# [4] = Scavenging of the ABTS radical (TEAC) assay; type: physicochemical
# Procedure: as §1
# [5] = target: T1, pancreatic lipase (Sus scrofa, UniProt P00591); assay: Pancreatic lipase inhibition assay; type: biochemical, porcine; conditions: Sephadex fractions
# T1 construct: purchased Sigma-Aldrich L-3126; host or cells: porcine pancreas
# T1 sequence (P00591 1-450): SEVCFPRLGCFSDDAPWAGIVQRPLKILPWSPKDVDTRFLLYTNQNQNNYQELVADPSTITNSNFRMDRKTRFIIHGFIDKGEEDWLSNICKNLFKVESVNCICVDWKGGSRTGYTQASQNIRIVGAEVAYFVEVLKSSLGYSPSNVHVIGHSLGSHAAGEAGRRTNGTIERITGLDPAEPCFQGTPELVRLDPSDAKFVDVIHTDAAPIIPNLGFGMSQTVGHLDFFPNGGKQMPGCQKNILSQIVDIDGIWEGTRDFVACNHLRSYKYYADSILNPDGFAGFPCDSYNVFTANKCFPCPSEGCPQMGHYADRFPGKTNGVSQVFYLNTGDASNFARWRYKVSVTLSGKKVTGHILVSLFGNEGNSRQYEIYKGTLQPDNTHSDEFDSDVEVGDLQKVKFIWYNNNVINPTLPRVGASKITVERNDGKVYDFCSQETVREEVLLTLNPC
# [6] = system: AGS cells; assay: Intracellular total antioxidant activity (TAA) in AGS cells; type: cell-based, human; conditions: rutin 100 µg/mL; non-significant
# Procedure: The TAA was carried out according to Ferrari et al.. AGS cells were plated at 25,000 cells/mL in 3 cm diameter Petri dishes. One day after confluence, AGS cells were pre-incubated overnight (16 h) with 3 mL of the pool of P. andina XAD7 extracts, in different concentrations (0–400 µg extract/mL). For comparison purposes, rutin (100 µg/mL) was also included in this experiment. All samples were prepared in medium supplemented with 2% FBS. Cells treated only with culture medium were used as the control of the basal antioxidant level. The next morning, cells were collected with a cell scraper and centrifuged at 900× g during 5 min. […]
# The ABTS radical was prepared by mixing 5 mL of a 7.46 mM ABTS solution with 88 μL of a 140 mM potassium persulfate solution. […] At the end of the incubation, the solution was diluted with MeOH until an absorbance value of 0.700 ± 0.050 at 734 nm was reached. […] After 6 min, absorbance was measured at 734 nm in a UV–Vis spectrophotometer. The absorbance was interpolated and converted to Trolox equivalents using a Trolox calibration curve. […] All the determinations were carried out in triplicate and results were expressed as µmol Trolox equivalents/mg protein ±SD.
# [7] = target: α-glucosidase (Saccharomyces cerevisiae, UniProt P53341); assay: α-Glucosidase inhibition assay; type: biochemical; conditions: read-out: α-Glucosidase Inhibition (percentage of inhibition)
# Sequence of α-glucosidase (P53341 whole entry): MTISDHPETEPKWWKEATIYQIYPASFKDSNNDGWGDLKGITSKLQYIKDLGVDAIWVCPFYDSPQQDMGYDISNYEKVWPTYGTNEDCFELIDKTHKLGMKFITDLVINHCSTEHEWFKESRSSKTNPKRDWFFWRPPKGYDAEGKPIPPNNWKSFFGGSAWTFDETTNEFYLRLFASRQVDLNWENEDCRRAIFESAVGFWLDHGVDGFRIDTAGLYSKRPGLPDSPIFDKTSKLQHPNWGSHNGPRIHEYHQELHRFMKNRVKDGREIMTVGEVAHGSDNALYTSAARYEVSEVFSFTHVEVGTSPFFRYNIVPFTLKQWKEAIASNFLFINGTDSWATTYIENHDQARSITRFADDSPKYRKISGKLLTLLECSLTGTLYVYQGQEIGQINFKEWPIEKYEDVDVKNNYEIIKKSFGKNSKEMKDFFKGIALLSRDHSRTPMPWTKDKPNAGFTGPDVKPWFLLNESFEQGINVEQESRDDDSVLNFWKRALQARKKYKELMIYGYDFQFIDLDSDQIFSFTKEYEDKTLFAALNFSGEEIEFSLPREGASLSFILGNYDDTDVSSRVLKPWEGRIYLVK
# Description: The chemicals, enzymes and reagents acquired from Sigma-Aldrich (St. Louis, MO, USA) were the following: α-amylase from porcine pancreas (A3176; EC 3.2.1.1), α-glucosidase from Saccharomyces cerevisiae (G5003; EC 3.2.1.20), acetic acid, AlCl3, Amberlite XAD7 HP, catechin, DPPH (2,2-diphenyl-1-picrylhydrazyl radical), 3,5-dinitrosalicylic acid, porcine pancreas lipase type II (L-3126; EC 3.1.1.3), Na2CO3, 4-nitrophenyl-α-D-glucopyranoside, p-nitrophenyl palmitate, p-anisaldehyde, quercetin, sodium acetate, starch, 2,4,6-tri(2-pyridyl)1,3,5-triazine (TPTZ), trichloracetic acid, thiobarbituric acid, and triton X-100. The following materials were purchased from Merck (Darmstadt, Germany): 6-hydroxy-2,5,7,8-tetramethylchroman-2-carboxylic acid (Trolox), ethyl acetate, FeCl3 × 6H2O, potassium sodium tartrate and HPLC-grade methanol. Pepsin A (P3271) was from US Biological (Salem, MA, USA). […]
# Potential inhibition of α-glucosidase by XAD7 extracts and fractions from the LH-20 column was tested under conditions that simulate, at least in part, those of the small intestine. […] Resulting enzyme activity was then measured by adding 20 µL of 5 mM p-nitrophenyl-α-D-glucopyranoside into the wells and incubating for additional 15 min at 37 °C. […] Final absorbance was measured at 415 nm in a Biotek ELx801 (Winooski, VT, USA) microplate reader. […]
# [8] = target: T2, α-amylase (Sus scrofa, UniProt P00690); assay: α-Amylase inhibition assay; type: biochemical, porcine; conditions: Sephadex fractions
# T2 construct: purchased Sigma-Aldrich A3176; host or cells: porcine pancreas
# T2 sequence (P00690 16-511): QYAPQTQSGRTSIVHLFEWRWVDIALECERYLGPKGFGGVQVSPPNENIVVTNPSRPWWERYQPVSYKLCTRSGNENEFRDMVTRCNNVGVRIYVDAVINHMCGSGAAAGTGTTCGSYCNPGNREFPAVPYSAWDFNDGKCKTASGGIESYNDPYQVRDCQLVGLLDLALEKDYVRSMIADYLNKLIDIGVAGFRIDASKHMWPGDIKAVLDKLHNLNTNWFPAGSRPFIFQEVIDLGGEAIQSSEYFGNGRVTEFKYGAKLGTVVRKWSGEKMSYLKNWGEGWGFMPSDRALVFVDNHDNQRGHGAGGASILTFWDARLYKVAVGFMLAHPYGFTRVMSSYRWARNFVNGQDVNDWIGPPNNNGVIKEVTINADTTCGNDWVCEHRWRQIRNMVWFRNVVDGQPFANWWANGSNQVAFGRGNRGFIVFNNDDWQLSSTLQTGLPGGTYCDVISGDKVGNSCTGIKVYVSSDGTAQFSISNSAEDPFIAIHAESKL
# [9] = system: AGS cells; assay: Cytoprotection against H2O2-induced stress in AGS cells; type: cell-based; conditions: Homo sapiens, rutin 100 µg/mL, non-significant, H2O2 control 47.4%, read-out: Cell viability after H2O2 challenge
# Procedure: Human AGS gastric adenocarcinoma cells (ATCC CRL-1739, American Type Culture Collection, Manassas, VA, USA) were grown as monolayers in a humidified incubator with 5% CO2 in air at 37 °C in HamF-12 medium supplemented with 2 mM L-glutamine and 1.5 g/L sodium bicarbonate. The medium contained 10% heat inactivated fetal bovine serum (FBS), 100 IU/mL penicillin and 100 µg/mL streptomycin. Cells were plated at 25,000 cells/mL in 96-well plates, with 100 µL per well. Cells were counted by means of the trypan blue exclusion assay in a Neubauer chamber. All the cell-based experiments were carried out using a pool of the extracts from different collection years.
# Confluent cultures of AGS cells were incubated for 16 h with 100 µL of the different samples at concentrations ranging from 0 to 400 µg extract/mL). The flavonol rutin (100 µg/mL) was included in this assay for comparison purposes. The sample was dissolved in medium supplemented with 2% FBS and antibiotics. Culture medium was completely removed by vacuum aspiration at the end of the incubation, and cells were washed with 100 µL of PBS. […] Cell viability was determined by means of the MTT reduction assay, as described above. […] Each concentration of the assayed samples was evaluated in quintuplicate. Results are expressed as percentage of the 100% viability control.
# [10] = TBARS generation in turkey meat under simulated gastric digestion; conditions: pH 3.0, 37 °C, 1 h
# Procedure: This assay was carried out according to Kanner et al., with slight modifications. Briefly, the simulated gastric fluid (SGF) contained final concentration of NaCl (0.2% w/v), pepsin (0.32% w/v) and 700 µL of HCl (37%), adjusted to a final volume of 100 mL with ultrapure water. Thirty grams of turkey meat were ground with 90 mL of the SGF solution for 1 min in a blender and adjusted to pH 3.0 with 100 µL of 7N HCl. Fifteen mL of the SGF-meat mixture was aliquoted in 100 mL Erlenmeyer flasks. The powdered extract was weighed and added to the homogenate (meat–liquid mixture) to achieve final concentrations ranging from 0–500 µg/mL in the 15 mL SGF-meat mixture. The P. andina sample consisted in a pool of the extracts from different collection years. The flasks were placed in a shaking water bath at 37 °C during 1 h. At the end of the incubation, 800 µL of the samples, controls (without extracts) and blanks (without meat) were centrifuged at 20,000× g for 15 min at 4 °C. Lipid peroxidation was determined quantifying TBARS. For this purpose, the supernatant resulting from the centrifugation (750 µL) was mixed with 750 µL of TBA solution (0.37% TBA, 15% trichloroacetic acid in 0.25 N HCl), and boiled during 20 min. The absorbance was determined at 532 nm. All determinations were carried out in triplicate and results are presented as IC50 values (μg extracts/mL) ±SD. […]
smiles,measurement,setting,value
"O=c1c(O)c(-c2ccc(O)c(O)c2)oc2cc(O)cc(O)c12 [Quercetin, quercetin, reference compound]",ORAC,"[1]; n = 3, mean ± SD",22561.6 ± 808.8 µmol TE/g XAD7 Extract
same,FRAP,"[2]; n = 3, mean ± SD",1077.2 ± 16.4 µmol TE/g XAD7 Extract
same,DPPH (SC50),"[3]; n = 3, mean ± SD",7.8 ± 0.3 µg XAD7 Extract/mL
same,TEAC,"[4]; n = 3, mean ± SD",8157.9 ± 22.1 µM TE/g XAD7 Extract
"C[C@@H]1O[C@@H](OC[C@H]2O[C@@H](Oc3c(-c4ccc(O)c(O)c4)oc4cc(O)cc(O)c4c3=O)[C@H](O)[C@@H](O)[C@@H]2O)[C@H](O)[C@H](O)[C@H]1O [rutin, quercetin 3-O-rutinoside]",Pancreatic Lipase Inhibition,[5],inactive
same,Increase of total intracellular antioxidant activity (TAA) vs untreated controls,[6],48.6%
same,inhibition at 50 µg/mL,[7],44.8 ± 1.6%
same,α-Amylase Inhibiton,[8],inactive
same,viability at 100 µg/mL,[9],46.4%
CC(C)(O)CC[C@@H](O)[C@](C)(O)[C@H]1CC[C@@]2(O)C3=CC(=O)[C@@H]4C[C@@H](O)[C@@H](O)C[C@]4(C)[C@H]3CC[C@]12C [20-hydroxyecdysone],ORAC value,[1]; isolated compound,827.3 ± 30.9 µmol TE/g of sample
same,FRAP value,[2]; isolated compound,72.4 ± 7.9 µmol Trolox equivalents/g sample
same,DPPH assay activity,[3]; isolated compound,inactive
same,Pancreatic Lipase Inhibition,[5],inactive
same,inhibition at 50 µg/mL,"[7]; at a concentration of 50 µg/mL, Sephadex fractions / isolated compounds",40.1 ± 1.3%
same,α-Amylase Inhibiton,[8],inactive
same,TEAC assay activity,[4]; isolated compound,inactive
"N=C(N)NN [aminoguanidine, Aminoguanidine]",IC50 of TBARS generation in turkey meat,[10],317.8 ± 20.4 µg/mL
